{"source": "patent US8003645B2", "about": "“Preventives or remedies for Alzheimer's disease, or amyloid protein fibril-formation inhibitors, which include a nitrogen-containing heteroaryl compound” (BTG International Ltd., priority 2001, dated 2011)", "key": {"[1]": {"test_system": "acute sections from the hippocampus", "assay": "Suppression of Aβ1-42-induced long-term potentiation impairment (fEPSP slope) in acute hippocampal sections", "type": "cell-based, Wistar rats", "description": "The method for testing the suppression of the impairment of long-term potentiation was based on that described in J. Neurosci. Vol. 20, 2003-10 (2000). That is to say, acute^i sections of thickness 400 μm were prepared from the hippocampus of the brains of 3-4 week old male Wistar rats. These acute sections were immersed in artificial cerebrospinal fluid in which β-amyloid protein (Aβ1-42: produced by the Sigma Chemical Co.) and compound from Production Examples 1 or 12 had been dissolved, and pretreatment carried out for 5 hours.\nIn the measurement using the compound from Production Example 1, the concentration of the Aβ1-42 in the artificial cerebrospinal fluid was 500 nM and the concentration of the compound from Production Example 1 was 1 μg/mL. In the measurement using the compound from Production Example 12, the concentration of the Aβ1-42 in the artificial cerebrospinal fluid was 1 μM and the concentration of the compound from Production Example 12 was 3 μg/mL. Now, the Aβ1-42 was used after coagulation of the amyloid by leaving overnight.\n100 pulses of high frequency stimulation at 100 Hz were applied to the pretreated acute sections, and the field excitatory postsynaptic potential: fEPSP) measured by an extracellular recording method.\nThe fEPSP was measured at 30 second intervals following application of the high frequency stimulation and the fEPSP slope (units [%]) measured. The average values of the slope over 0-20 minutes, 20-40 minutes and 40-60 minutes were determined. This test was repeated five times over. In the table, the figures are the average values ±standard deviation for the five averages obtained in the five tests. […] “Aβ” denotes the Aβ1-42.\nAs controls, measurements were made of the fEPSP [mV] under the same conditions for acute sections pretreated with the artificial cerebrospinal fluid alone, acute sections pretreated with the artificial cerebrospinal fluid in which Aβ1-42 had been dissolved, and acute sections pretreated with artificial cerebrospinal fluid in which only the compound from Production Example 1 or 12 had been dissolved, and then the average value of the fEPSP slope [%] obtained."}, "HeLa cells": {"test_system": "HeLa cells", "assay": "Action in inhibiting the lowering of MTT reduction capacity by Aβ1-40", "type": "cell-based", "description": "The HeLa cells employed were purchased from the Dainippon Pharmaceutical Co.\nThe HeLa cells were seeded by suspension in MEM (Minimum essential medium; produced by the Sigma Chemical Co.) containing 10% inactivated FBS (foetal bovine serum) such that there were 1,000 per well in a 96-well microplate, and then culturing was carried out overnight in an incubator at 37° C. in the presence of 5% CO2.\nThe test compound was dissolved in dimethyl sulphoxide (DMSO) and diluted with the MEM medium so that the final concentration of DMSO was no more than 0.1 wt %, and added to the cells seeded the previous day. […] Overnight culturing was carried out using an incubator at 37° C. in the presence of 5% CO2, with 100 μL/well of MEM medium containing 5% deactivated FBS.\nNow, prior to use, the Aβ1-40 had been dissolved in buffer and left overnight so that the amyloid coagulated.\nIn order to determine the percentage inhibition of the test compound, cells alone, cells where Aβ1-40 had been added, and cells where only the test compound had been added, were also incubated overnight under the same conditions.\nThe following day, there was added 10 μL/well of MTT [3-(4,5-dimethylthiazol-2-yl)-2,5-diphenyltetrazolium bromide: produced by Wako Pure Chemical Industries] prepared at a concentration of 5 mg/mL with phosphate buffered saline (PBS), and incubation carried out for 2 hours at 37° C. in the presence of 5% CO2. The medium was then eliminated and the formazan dye produced measured […] (A570 nm-A650 nm) using a Microplate Reader (produced by the Molecular Devices Co.), by dissolving with the addition of 100 μL per well of isopropanol. In this way, the change in the MTT reduction capacity of the HeLa cells was measured.\nThe percentage inhibition (%) by the test compound was determined from the following formula. inhibition (%) [[…]/(a−c)]×100 where • a=MTT reduction capacity when untreated • b=MTT reduction capacity when Aβ1-40 and the test compound are added • c=MTT reduction capacity when only Aβ1-40 is added"}, "[2]": {"conditions": "Table 8, Aβ (1 μM) + compound 1 μg/mL"}, "[3]": {"conditions": "Table 8, compound alone 1 μg/mL, no Aβ"}, "[4]": {"conditions": "Test 1, Aβ1-42 (500 nM) + compound 1 μg/mL"}, "[5]": {"conditions": "Test 1, compound alone 1 μg/mL, no Aβ"}, "[6]": {"conditions": "Homo sapiens, HeLa cells, Aβ1-40 (100 nM), read-out: IC50 (action in inhibiting the lowering of the MTT reduction capacity by Aβ1-40)"}}, "note": "Read-outs that look alike come from different tables or passages of the source."}
{"compound": "CC1(C)CC(C)(c2ccc(O)cc2O)c2ccc(O)cc2O1", "note": "(stereo not drawn) [Compound A, 4-(7-hydroxy-2,4,4-trimethyl-chroman-4-yl)benzene-1,3-diol, reference compound]", "values": [{"measurement": "Value of fEPSP Slope [%] 0-20 minutes", "setting": "[1]; [2]", "result": "159.5 ± 6.6", "unit": "%"}, {"measurement": "Value of fEPSP Slope [%] 20-40 minutes", "setting": "[1]; [2]", "result": "142.8 ± 5.4", "unit": "%"}, {"measurement": "Value of fEPSP Slope [%] 40-60 minutes", "setting": "[1]; [2]", "result": "137.3 ± 4.5", "unit": "%"}, {"measurement": "Value of fEPSP Slope [%] 0-20 minutes", "setting": "[1]; [3]", "result": "168.6 ± 13.0", "unit": "%"}, {"measurement": "Value of fEPSP Slope [%] 20-40 minutes", "setting": "[1]; [3]", "result": "146.6 ± 15.9", "unit": "%"}, {"measurement": "Value of fEPSP Slope [%] 40-60 minutes", "setting": "[1]; [3]", "result": "149.7 ± 16.1", "unit": "%"}, {"measurement": "IC50", "setting": "HeLa cells; same method as Table 6, HeLa cells, Aβ1-40, read-out: 50% inhibitory concentration (IC50), action in suppressing the lowering of MTT function", "result": 12, "unit": "µM"}]}
{"compound": "CCc1nc(Nc2cccc(O)c2)nc(Nc2cccc(O)c2)n1", "note": "[Production Example 1, 6-Ethyl-N,N′-bis(3-hydroxyphenyl)-1,3,5-triazine-2,4-diamine]", "values": [{"measurement": "Value of fEPSP Slope [%] 0-20 minutes", "setting": "[1]; [4]", "result": "150.0 ± 8.4", "unit": "%"}, {"measurement": "Value of fEPSP Slope [%] 20-40 minutes", "setting": "[1]; [4]", "result": "149.6 ± 6.9", "unit": "%"}, {"measurement": "Value of fEPSP Slope [%] 40-60 minutes", "setting": "[1]; [4]", "result": "151.2 ± 7.5", "unit": "%"}, {"measurement": "Value of fEPSP Slope [%] 0-20 minutes", "setting": "[1]; [5]", "result": "155.3 ± 3.4", "unit": "%"}, {"measurement": "Value of fEPSP Slope [%] 20-40 minutes", "setting": "[1]; [5]", "result": "156.5 ± 3.9", "unit": "%"}, {"measurement": "Value of fEPSP Slope [%] 40-60 minutes", "setting": "[1]; [5]", "result": "155.8 ± 5.0", "unit": "%"}, {"measurement": "effect of compound on its own on LTP (result in words)", "setting": "[1]; compound alone, no Aβ", "result": "inactive on its own"}, {"measurement": "impairment of the LTP due to Aβ1-42 (result in words)", "setting": "[1]; pretreating 5 hours with Aβ1-42 together with the compound", "result": "suppressed"}, {"measurement": "IC50", "setting": "HeLa cells; [6]", "result": 3.5, "unit": "µM"}]}
{"compound": "CCc1nc(Nc2cccc(O)c2)cc(Nc2cccc(O)c2)n1", "note": "[Production Example 2, 2-Ethyl-N,N′-bis(3-hydroxyphenyl)pyrimidine-4,6-diamine]", "values": [{"measurement": "IC50", "setting": "HeLa cells; [6]", "result": 1.9, "unit": "µM"}]}
{"compound": "Oc1cccc(Nc2cc(Nc3cccc(O)c3)ncn2)c1", "note": "[Production Example 5, N,N′-bis(3-hydroxyphenyl)pyrimidine-4,6-diamine]", "values": [{"measurement": "IC50", "setting": "HeLa cells; [6]", "result": 9.6, "unit": "µM"}]}
{"compound": "Oc1cccc(Nc2ccnc(Nc3cccc(O)c3)n2)c1", "note": "[Production Example 6, N,N′-bis(3-hydroxyphenyl)pyrimidine-2,4-diamine]", "values": [{"measurement": "IC50", "setting": "HeLa cells; [6]", "result": 6.7, "unit": "µM"}]}
{"compound": "CCCCc1nc(Nc2cccc(O)c2)cc(Nc2cccc(O)c2)n1", "note": "[Production Example 8, 2-Butyl-N,N′-bis(3-hydroxyphenyl)pyrimidine-4,6-diamine]", "values": [{"measurement": "IC50", "setting": "HeLa cells; [6]", "result": 5.5, "unit": "µM"}]}
{"compound": "CCCc1nc(Nc2cccc(O)c2)cc(Nc2cccc(O)c2)n1", "note": "[Production Example 9, 2-Propyl-N,N′-bis(3-hydroxyphenyl)pyrimidine-4,6-diamine]", "values": [{"measurement": "IC50", "setting": "HeLa cells; [6]", "result": 2.4, "unit": "µM"}]}
{"compound": "CCCc1nc(Nc2cccc(O)c2)nc(Nc2cccc(O)c2)n1", "note": "[Production Example 10, N,N′-bis(3-hydroxyphenyl)-6-propyl-1,3,5-triazine-2,4-diamine]", "values": [{"measurement": "IC50", "setting": "HeLa cells; [6]", "result": 4.2, "unit": "µM"}]}
{"compound": "Nc1nc(Nc2cccc(O)c2)cc(Nc2cccc(O)c2)n1", "note": "[Production Example 13, 2-Amino-N,N′-bis(3-hydroxyphenyl)pyrimidine-4,6-diamine]", "values": [{"measurement": "IC50", "setting": "HeLa cells; [6]", "result": 5.5, "unit": "µM"}]}
{"compound": "O=[N+]([O-])c1c(Nc2cccc(O)c2)ncnc1Nc1cccc(O)c1", "note": "[Production Example 18, N,N′-bis(3-hydroxyphenyl)-5-nitropyrimidine-4,6-diamine]", "values": [{"measurement": "IC50", "setting": "HeLa cells; [6]", "result": 3.8, "unit": "µM"}]}
{"compound": "Cc1nc(Nc2cccc(O)c2)nc(Nc2cccc(O)c2)n1", "note": "[Production Example 27, N,N′-bis(3-hydroxyphenyl)-6-methyl-1,3,5-triazine-2,4-diamine]", "values": [{"measurement": "IC50", "setting": "HeLa cells; [6]", "result": 2.4, "unit": "µM"}]}
{"compound": "CC(C)(C)c1nc(Nc2cccc(O)c2)nc(Nc2cccc(O)c2)n1", "note": "[Production Example 33, 6-t-Butyl-N,N′-bis(3-hydroxyphenyl)-1,3,5-triazine-2,4-diamine]", "values": [{"measurement": "IC50", "setting": "HeLa cells; [6]", "result": 2.2, "unit": "µM"}]}
{"compound": "CCC(C)c1nc(Nc2cccc(O)c2)nc(Nc2cccc(O)c2)n1", "note": "(stereo not drawn) [Production Example 34, 6-s-Butyl-N,N′-bis(3-hydroxyphenyl)-1,3,5-triazine-2,4-diamine]", "values": [{"measurement": "IC50", "setting": "HeLa cells; [6]", "result": 4.1, "unit": "µM"}]}
